In patent publication US20110201550A1, “COMBINATION OF AMIDINE DERIVATIVES WITH CYCLIC DEPSIPEPTIDES” (Bayer Animal Health GMBH, priority 2008, published 2011):

Tested on: Nippostrongylus brasiliensis
Test: In-vitro experiments with adult Nippostrongylus brasiliensis: acetylcholine esterase activity in the incubation medium
Format: cell-based
Set-up: key: 0=no activity (<50% enzyme inhibition); 1=weak activity; 2=good activity; 3=full activity
Procedure: Test Method for In-Vitro Experiments with Nippostrongylus brasiliensis
Adult Nippostrongylus brasiliensis were isolated from the small intestine of female Wistar rats and transferred into 0.9% NaCl containing 20 μg/ml sisomycin and 2 μg/ml Canesten. The groups of worms (both sexes) were incubated in 1.0 ml of medium, which was also used for determining the acetylcholine esterase activity. The incubation and the enzyme assay were described in the paper by Rapson et al. (1987) Z. Parasitenkunde 73, 190-191. […] The controls only contained DMSO. The acetylcholine esterase activity in the incubation medium was determined in accordance with the above publication.
The efficacy was categorized by means of a scale 0-3, where 0=no activity (<50% enzyme inhibition); 1=weak activity; 2=good activity; 3=full activity

COCC(=O)Nc1ccc(/N=C(\C)N(C)C)cc1 [Amidantel, amidantel]
efficacy (scale 0-3, acetylcholine esterase inhibition) (Amidantel 10 ppm alone (PF1022A 0 ppm)): 1
efficacy (scale 0-3, acetylcholine esterase inhibition) (Amidantel 50 ppm alone (PF1022A 0 ppm)): 1
efficacy (scale 0-3, acetylcholine esterase inhibition) (Amidantel 100 ppm alone (PF1022A 0 ppm)): 1

C/C(=N\c1ccc(N)cc1)N(C)C [Bay d 9216]
efficacy (scale 0-3, acetylcholine esterase inhibition) (Bay d 9216 1 ppm alone (PF1022A 0 ppm)): 1
efficacy (scale 0-3, acetylcholine esterase inhibition) (Bay d 9216 5 ppm alone (PF1022A 0 ppm)): 1
efficacy (scale 0-3, acetylcholine esterase inhibition) (Bay d 9216 10 ppm alone (PF1022A 0 ppm)): 1

CC(C)CC1C(=O)OC(Cc2ccccc2)C(=O)N(C)C(CC(C)C)C(=O)OC(C)C(=O)N(C)C(CC(C)C)C(=O)OC(Cc2ccccc2)C(=O)N(C)C(CC(C)C)C(=O)OC(C)C(=O)N1C (stereo not drawn) [PF1022A]
efficacy (scale 0-3, acetylcholine esterase inhibition) (PF1022A 0.01 ppm alone (Amidantel 0 ppm)): 1
efficacy (scale 0-3, acetylcholine esterase inhibition) (PF1022A 0.01 ppm alone (Bay d 9216 0 ppm)): 1
efficacy (scale 0-3, acetylcholine esterase inhibition) (PF1022A 0.05 ppm alone (Amidantel 0 ppm)): 1
efficacy (scale 0-3, acetylcholine esterase inhibition) (PF1022A 0.05 ppm alone (Bay d 9216 0 ppm)): 1
efficacy (scale 0-3, acetylcholine esterase inhibition) (PF1022A 0.1 ppm alone (Amidantel 0 ppm)): 2
efficacy (scale 0-3, acetylcholine esterase inhibition) (PF1022A 0.1 ppm alone (Bay d 9216 0 ppm)): 2
